Measurements published in the supplement of paper PMC10307832.

Key:
Assay in all cases: relative viability (nuclei count vs DMSO), 5 days (fraction); higher = more cells survive
NCI-H2347 = system: NCI-H2347
In short: (§1)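 Lung cancer cell lines, seeded in 1536-well plates, were treated the following day by pin tool with a single drug or with five library-drug doses (not always all listed) in √10 steps on top of a fixed anchor-drug dose. Cells were fixed and nuclei stained in one step after 5 days, and nuclei were counted. Relative viability is the nuclei count for treated wells divided by that for vehicle wells, reported as medians of duplicate plates.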

NCI-H1915 = system: NCI-H1915
In short: as §1

RERF-LC-KJ = system: RERF-LC-KJ
In short: as §1

LXF-289 = system: LXF-289
In short: as §1

NCI-H1755 = system: NCI-H1755
In short: as §1

SW 1573 = system: SW 1573
In short: as §1

LC-2-ad = system: LC-2-ad
In short: as §1

NCI-H1975 = system: NCI-H1975
In short: as §1

HOP-62 = system: HOP-62
In short: as §1

NCI-H2228 = system: NCI-H2228
In short: as §1

SK-LU-1 = system: SK-LU-1
In short: as §1

HCC-15 = system: HCC-15
In short: as §1

A-427 = system: A-427
In short: as §1

HCC-78 = system: HCC-78
In short: as §1

NCI-H522 = system: NCI-H522
In short: as §1

NCI-H2342 = system: NCI-H2342
In short: as §1

NCI-H1734 = system: NCI-H1734
In short: as §1

NCI-H647 = system: NCI-H647
In short: as §1

NCI-H358 = system: NCI-H358
In short: as §1

PC-3 [JPC-3] = system: PC-3 [JPC-3]
In short: as §1

NCI-H2126 = system: NCI-H2126
In short: as §1

SMILES: O=c1cc(-c2cccc3c2Sc2ccccc2S3)oc(N2CCOCC2)c1 + O=C(CCCCCCC(=O)Nc1ccccc1)NO [Vorinostat] (partner 1 µM)
- relative viability (NCI-H2347; first compound 0.08 µM): 0.606
- relative viability (NCI-H2347; first compound 0.253 µM): 0.609
- relative viability (NCI-H2347; first compound 0.8 µM): 0.548
- relative viability (NCI-H2347; first compound 2.53 µM): 0.499
- relative viability (NCI-H2347; first compound 8 µM): 0.46
- relative viability (NCI-H1915; first compound 0.08 µM): 0.549
- relative viability (NCI-H1915; first compound 0.253 µM): 0.492
- relative viability (NCI-H1915; first compound 0.8 µM): 0.592
- relative viability (NCI-H1915; first compound 2.53 µM): 0.517
- relative viability (NCI-H1915; first compound 8 µM): 0.562
- relative viability (RERF-LC-KJ; first compound 0.08 µM): 0.558
- relative viability (RERF-LC-KJ; first compound 0.253 µM): 0.64
- relative viability (RERF-LC-KJ; first compound 0.8 µM): 0.713
- relative viability (RERF-LC-KJ; first compound 2.53 µM): 0.655
- relative viability (RERF-LC-KJ; first compound 8 µM): 0.666
- relative viability (LXF-289; first compound 0.08 µM): 0.902
- relative viability (LXF-289; first compound 0.253 µM): 0.784
- relative viability (LXF-289; first compound 0.8 µM): 0.782
- relative viability (LXF-289; first compound 2.53 µM): 0.661
- relative viability (LXF-289; first compound 8 µM): 0.819
- relative viability (NCI-H1755; first compound 0.08 µM): 0.734
- relative viability (NCI-H1755; first compound 0.253 µM): 0.797
- relative viability (NCI-H1755; first compound 0.8 µM): 0.795
- relative viability (NCI-H1755; first compound 2.53 µM): 0.709
- relative viability (NCI-H1755; first compound 8 µM): 0.8
- relative viability (SW 1573; first compound 0.08 µM): 0.702
- relative viability (SW 1573; first compound 0.253 µM): 0.933
- relative viability (SW 1573; first compound 0.8 µM): 1.01
- relative viability (SW 1573; first compound 2.53 µM): 0.771
- relative viability (SW 1573; first compound 8 µM): 0.907
- relative viability (LC-2-ad; first compound 0.08 µM): 0.683
- relative viability (LC-2-ad; first compound 0.253 µM): 0.835
- relative viability (LC-2-ad; first compound 0.8 µM): 0.684
- relative viability (LC-2-ad; first compound 2.53 µM): 0.695
- relative viability (LC-2-ad; first compound 8 µM): 0.69
- relative viability (NCI-H1975; first compound 0.08 µM): 0.687
- relative viability (NCI-H1975; first compound 0.253 µM): 0.827
- relative viability (NCI-H1975; first compound 0.8 µM): 0.707
- relative viability (NCI-H1975; first compound 2.53 µM): 0.671
- relative viability (NCI-H1975; first compound 8 µM): 0.749
- relative viability (HOP-62; first compound 0.08 µM): 0.646
- relative viability (HOP-62; first compound 0.253 µM): 0.832
- relative viability (HOP-62; first compound 0.8 µM): 0.691
- relative viability (HOP-62; first compound 2.53 µM): 0.661
- relative viability (HOP-62; first compound 8 µM): 0.664
- relative viability (NCI-H2228; first compound 0.08 µM): 0.824
- relative viability (NCI-H2228; first compound 0.253 µM): 0.646
- relative viability (NCI-H2228; first compound 0.8 µM): 0.76
- relative viability (NCI-H2228; first compound 2.53 µM): 0.7
- relative viability (NCI-H2228; first compound 8 µM): 0.578
- relative viability (SK-LU-1; first compound 0.08 µM): 0.8
- relative viability (SK-LU-1; first compound 0.253 µM): 0.894
- relative viability (SK-LU-1; first compound 0.8 µM): 0.877
- relative viability (SK-LU-1; first compound 2.53 µM): 0.709
- relative viability (SK-LU-1; first compound 8 µM): 0.705
- relative viability (HCC-15; first compound 0.08 µM): 0.906
- relative viability (HCC-15; first compound 0.253 µM): 0.952
- relative viability (HCC-15; first compound 0.8 µM): 0.82
- relative viability (HCC-15; first compound 2.53 µM): 0.722
- relative viability (HCC-15; first compound 8 µM): 0.808
- relative viability (A-427; first compound 0.08 µM): 0.863
- relative viability (A-427; first compound 0.253 µM): 0.931
- relative viability (A-427; first compound 0.8 µM): 0.897
- relative viability (A-427; first compound 2.53 µM): 0.834
- relative viability (A-427; first compound 8 µM): 0.829
- relative viability (HCC-78; first compound 0.08 µM): 0.478
- relative viability (HCC-78; first compound 0.253 µM): 0.529
- relative viability (HCC-78; first compound 0.8 µM): 0.376
- relative viability (HCC-78; first compound 2.53 µM): 0.39
- relative viability (HCC-78; first compound 8 µM): 0.474
- relative viability (NCI-H522; first compound 0.08 µM): 0.952
- relative viability (NCI-H522; first compound 0.253 µM): 0.909
- relative viability (NCI-H522; first compound 0.8 µM): 0.811
- relative viability (NCI-H522; first compound 2.53 µM): 0.736
- relative viability (NCI-H522; first compound 8 µM): 1
- relative viability (NCI-H2342; first compound 0.08 µM): 0.752
- relative viability (NCI-H2342; first compound 0.253 µM): 0.831
- relative viability (NCI-H2342; first compound 0.8 µM): 0.8
- relative viability (NCI-H2342; first compound 2.53 µM): 0.691
- relative viability (NCI-H2342; first compound 8 µM): 0.699
- relative viability (NCI-H1734; first compound 0.08 µM): 0.771
- relative viability (NCI-H1734; first compound 0.253 µM): 0.94
- relative viability (NCI-H1734; first compound 0.8 µM): 0.824
- relative viability (NCI-H1734; first compound 8 µM): 0.993
- relative viability (NCI-H647; first compound 0.08 µM): 0.527
- relative viability (NCI-H647; first compound 0.253 µM): 0.691
- relative viability (NCI-H647; first compound 0.8 µM): 0.766
- relative viability (NCI-H647; first compound 2.53 µM): 0.638
- relative viability (NCI-H647; first compound 8 µM): 0.782
- relative viability (NCI-H358; first compound 0.08 µM): 0.725
- relative viability (NCI-H358; first compound 0.253 µM): 0.651
- relative viability (NCI-H358; first compound 0.8 µM): 0.705
- relative viability (NCI-H358; first compound 2.53 µM): 0.71
- relative viability (NCI-H358; first compound 8 µM): 0.632
- relative viability (PC-3 [JPC-3]; first compound 0.08 µM): 0.579
- relative viability (PC-3 [JPC-3]; first compound 0.253 µM): 0.788
- relative viability (PC-3 [JPC-3]; first compound 0.8 µM): 0.769
- relative viability (PC-3 [JPC-3]; first compound 2.53 µM): 0.79
- relative viability (PC-3 [JPC-3]; first compound 8 µM): 0.851
- relative viability (NCI-H2126; first compound 0.08 µM): 0.722
- relative viability (NCI-H2126; first compound 0.253 µM): 0.781
- relative viability (NCI-H2126; first compound 0.8 µM): 0.792
- relative viability (NCI-H2126; first compound 2.53 µM): 0.823
- relative viability (NCI-H2126; first compound 8 µM): 0.74
